From ChEMBL document CHEMBL3400004, “Novel fused tetrathiocines as antivirals that target the nucleocapsid zinc finger containing protein of the feline immunodeficiency virus (FIV) as a model of HIV infection” (Bioorg Med Chem Lett, 2015) come the findings set out here.

In general, CC50 refers to the concentration that lowers cell viability or growth by half. The EC50 is the concentration at which the effect is half-maximal.

A value given as a limit tells only on which side of the number the result lay.

Data set [1] can be described thus: Cytotoxicity against cat CRFK cells assessed as cell viability at 10 uM after 24 hrs by MTT assay. In kind it is cell-based, Felis catus. The conditions noted are these: read-out: Activity.
The nature of data set [2]: Cytotoxicity against IL2-independent cat FL-4 cells assessed as reduction in cell viability after 7 days by MTT assay. It counts as cell-based, Felis catus. As to conditions: IL2-independent FL-4 cells.
Data set [3] concerns Feline immunodeficiency virus. In words: Antiviral activity against Feline immunodeficiency virus infected in cat FL-4 cells assessed as inhibition of viral replication after 7 days by quantitative RT-PCR analysis. In kind it is functional, organism-based. As to conditions: FL-4, 168 h.
A short description of data set [4]: Therapeutic index, ratio of CC50 for cat FL-4 cells to EC50 for Feline immunodeficiency virus infected in cat FL-4 cells. In kind it is cell-based. As to conditions: read-out: Ratio CC50/EC50.

`COc1cc2c(cc1OC)SSc1cc(OC)c(OC)cc1SS2`: the viability at 24 h, 10 µM in data set [1] was 75.3%. Besides, the CC50 at 168 h in data set [2] is > 100 µM. The EC50 in data set [3] is 0.0309 µM. Besides, in data set [4], the selectivity ratio was > 3240.
Regarding `c1c2c(cc3c1SSc1cc4c(cc1SS3)OCO4)OCO2`, the viability at 24 h, 10 µM in data set [1] is 77%. Besides, the CC50 at 168 h in data set [2] is 5.79 µM. Also, the EC50 in data set [3] was 0.0932 µM. For the same compound, the selectivity ratio in data set [4] is 62.1.
For `c1c2c(cc3c1SSc1cc4c(cc1SS3)OCCO4)OCCO2`, the viability at 24 h, 10 µM in data set [1] is 91.1%. Moreover, in data set [2], the CC50 at 168 h is > 100 µM. The EC50 in data set [3] worked out at 0.0689 µM. The selectivity ratio in data set [4] is > 1450.
For the compound `CCN(CC)c1sc(N(CC)CC)c2c1SSc1c(N(CC)CC)sc(N(CC)CC)c1SS2`, in data set [1], the viability at 24 h, 10 µM was > 100%. The CC50 at 168 h in data set [2] is > 100 µM. In addition, the EC50 in data set [3] is > 100 µM. In data set [4], the selectivity ratio stood at 1.
Take `Cn1c(Cl)c2c(c1Cl)SSc1c(c(Cl)n(C)c1Cl)SS2`: the viability at 24 h, 10 µM in data set [1] was > 100%. In addition, the CC50 at 168 h in data set [2] was > 100 µM. Further, the concentration for a half-maximal effect (EC50) in data set [3] amounted to 0.205 µM. The selectivity ratio in data set [4] is > 489.
For `CCn1c(Cl)c2c(c1Cl)SSc1c(c(Cl)n(CC)c1Cl)SS2` the same measures were > 100%, > 100 µM, > 100 µM and 1.
In the case of `CC(C)(C)n1cc2c(c1)SSc1cn(C(C)(C)C)cc1SS2`, the viability at 24 h, 10 µM in data set [1] was > 100%. Also, in data set [2], the CC50 at 168 h is > 100 µM. Moreover, the EC50 in data set [3] was determined as 14.5 µM. Besides, the selectivity ratio in data set [4] is > 6.9.
Turning to `CCn1c(C)c2c(c1C)SSc1c(c(C)n(CC)c1C)SS2`, the viability at 24 h, 10 µM in data set [1] was > 100%. Besides, the CC50 at 168 h in data set [2] is > 100 µM. The EC50 in data set [3] is 60.7 µM. Further, the selectivity ratio in data set [4] was found to be 1.6.
As to `Cc1c2c(c(C)n1Cc1ccccc1)SSc1c(c(C)n(Cc3ccccc3)c1C)SS2`, the viability at 24 h, 10 µM in data set [1] was > 100%. Further, the CC50 at 168 h in data set [2] is 58.2 µM. In addition, the EC50 in data set [3] was determined as 3.08 µM. The selectivity ratio in data set [4] was found to be 18.9.
Take `Cn1c2c(c3ccccc31)SSc1c(c3ccccc3n1C)SS2`: the viability at 24 h, 10 µM in data set [1] is > 100%. For the same compound, the CC50 at 168 h in data set [2] was > 100 µM. The EC50 in data set [3] amounted to 0.0429 µM. Moreover, the selectivity ratio in data set [4] was > 2330.
On to `Cc1nnc(C(=O)NC(C)(C)c2nc(C(=O)NCc3ccc(F)cc3)c(O)c(=O)n2C)o1` [RALTEGRAVIR], for which, in data set [1], the viability at 24 h, 10 µM was > 100%. Also, the CC50 at 168 h in data set [2] was > 100 µM. The selectivity ratio in data set [4] was > 10000.
For the compound `Cc1cn([C@H]2C[C@H](N=[N+]=[N-])[C@@H](CO)O2)c(=O)[nH]c1=O` [ZIDOVUDINE], the viability at 24 h, 10 µM in data set [1] was > 100%. Also, the CC50 at 168 h in data set [2] is > 100 µM. Further, the selectivity ratio in data set [4] was > 18.8.
